The results in this text go back to patent US6395499B1, “Methods of identifying modulators of a DP prostaglandin receptor” (Merck Frosst Canada & Co., priority 1995, dated 2002).

Assay [1] addresses T1, human prostaglandin D2 (DP) receptor (Homo sapiens, UniProt Q13258).
T1 construct: The full length coding cDNA was constructed as follows; expressed in transfected cells
T1 sequence (Q13258 1-359): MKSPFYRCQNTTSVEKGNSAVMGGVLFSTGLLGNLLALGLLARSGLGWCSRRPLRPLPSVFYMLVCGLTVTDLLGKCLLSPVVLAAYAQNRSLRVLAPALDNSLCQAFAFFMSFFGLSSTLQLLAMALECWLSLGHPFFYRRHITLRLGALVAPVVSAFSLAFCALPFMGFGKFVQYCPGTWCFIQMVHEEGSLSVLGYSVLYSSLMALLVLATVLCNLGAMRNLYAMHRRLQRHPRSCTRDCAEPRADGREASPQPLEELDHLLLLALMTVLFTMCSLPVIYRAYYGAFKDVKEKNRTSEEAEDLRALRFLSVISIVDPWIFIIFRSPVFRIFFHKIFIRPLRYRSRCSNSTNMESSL
Put plainly: [3H]PGD2 specific binding assay, membranes of pcDNA3-hDP transfected COS-M6 cells. To be noted: 0.87 nM [3H]PGD2, 60 min at 30° C., pH 7.0, read-out: Ki, competition for [3H]PGD2 specific binding. As for the experimental part: FIG. 3—Competition for [^3H]PGD2 specific binding to pcDNA3-hDP transfected COS-M6 membranes. [^3H]PGD2 binding assays were performed as described in Example 6. The percentage maximum [^3H]PGD2 specific binding at each competing ligand concentration was determined for PGD2 (▪), the DP receptor agonist BW245C (●), the DP antagonist BW868C (♦), PGE2 (▴), PGF2a (▾), iloprost (□) and the TP-receptor agonist U46619 (∘), over a concentration range up to 100 μM.
The recently cloned human prostaglandin D2 (DP) receptor was subcloned into the pcDNA3 plasmid (Invitrogen) and transfected into COS-M6 cells by the cationic liposome-mediated transfer of DNA using LiofectAMINE reagent (GIBCO/BRL). The cells were maintained in culture for 72 h, then harvested and membranes prepared by differential centrifugation (1000×g for 10 min, then 100,000×g for 30 min) following lysis of the cells by nitrogen cavitation. [^3H]PGD2 specific binding assays were performed in 10 mM BES adjusted to pH 7.0 with KOH and containing 1.0 mM EDTA, 10 mM MnCl2, 0.87 nM [^3H]PGD2 and […] of protein from the 100,000×g membrane fraction. Incubations were conducted for 60 min at 30° C. prior to separation of the bound and free radioligand by rapid filtration through Whatman GF/B filters presoaked at 4° C. in washing buffer (10 mM BES/KOH (pH 7.0) containing 0.01% (w/v)bovine serum albumin). The filters were washed with approximately 16 ml of washing buffer and the residual [^3H]PGD2 bound to the filter was quantified by liquid scintillation counting. Specific binding was defined as the difference between total binding and non-specific binding, determined in the presence of 1 mM PGD2.
The cloned human DP receptor was transfected into COS-M6 cells and [^3H]PGD2 binding assays were performed with membranes prepared from the transfected cells. […] The rank order of affinity for prostaglandins and related synthetic analogs at the human DP receptor was therefore: BW245C>PGD2>BW868C>PGE2>PGF2a=iloprost>U46619. This rank order of potency has been predicted for the DP receptor from previous pharmacological studies.

Assay [2] deals with T1, human prostaglandin D2 (DP) receptor. As to the kind of experiment: cAMP assay in HEK293 (EBNA) cells stably expressing the DP receptor. In kind it is cell-based. Particulars: for EC50: 15 min at 37° C., 100 μM RO-20-1724, read-out: EC50, increase in intracellular cAMP production; for cAMP production: concentrations up to 1 μM. As for the experimental part:
FIG. 5—Increases in intracellular cAMP production in HEK293 (EBNA) cells stably expressing the DP receptor is shown. cAMP assays were performed as described in Example 7. The pmoles of cAMP produced per 1.5×10^5 cells at each ligand concentration was determined for PGD2 (n), the DP receptor agonist BW245C (●), the DP antagonist BW868C (♦), PGE2 (▴), PGE1 ( ? ), PGF2α (▾), iloprost (□) and the TP-receptor agonist U46619 (∘), over a concentration range up to 1 μM.
The recently cloned human prostaglandin D2 (DP) receptor was subcloned into the pCEP4 plasmid (Invitrogen) and transfected into HEK293 (EBNA) cells by the cationic liposome-mediated transfer of DNA using LipofectAMINE™ (Gibco/BRL) reagent. Cells were maintained in culture for 48 h post transfection and then trypsinized, diluted and replated in the presence 200 μg/ml hygromycin B (Calbiochem) to select for transfected cells. Cells were maintained under selection for 3 weeks to ensure a homogeneous population of cells expressing the DP receptor.
(§1) Increases in intracellular cAMP production following agonist challenge was performed in HEK293 (EBNA) cells expressing the DP receptor and control HEK293 (EBNA) cells. Cells were harvested at approximately 80% confluence by incubation in enzyme-free cell dissociation buffer (Gibco/BRL), washed once with HEPES-buffered Krebs-Ringer solution {1.25 mM MgSO4, 1.5 mM CaCl2, 5 mM KCl, 124 mM NaCl, 8 mM glucose, 1.25 mM KH2PO4, and 25 mM HEPES/KOH (pH 7.4)} and resuspended in the same buffer. The cAMP assay was performed in a final volume of 0.2 ml of HEPES-buffer Krebs-Ringer solution and 100 μM of the phosphodiesterase type IV inhibitor RO-20-1724 (Biomol), to prevent hydrolysis of cAMP. RO-20-1724 and the compounds under evaluation were added to the incubation mixture in dimethyl sulfoxide or ethanol to a final vehicle concentration 0.35% (v/v) which was kept constant in all samples. The reaction was initiated by the addition of 1.5×10^5 cells per incubation. Samples were incubated at 37° C. for 15 min and the reaction was then terminated by immersing the samples in boiling water for 3 minutes. Cell viability was always ≧96% as determined by trypan blue exclusion. Measurement of cAMP was performed by radioimmunoassay using [^125I]cAMP (Amersham International).
For orientation: cAMP levels reflect the balance of adenylyl cyclase and phosphodiesterase activity.

In assay [3] the test system is control HEK293 (EBNA) cells. Put plainly: Intracellular calcium [Ca2+]i assay in control HEK293 (EBNA) cells. Type of assay: cell-based. To be noted: 1000 nM. As for the experimental part: (§2) Intracellular calcium [Ca^2+]i measurements were performed with both the DP-HEK293 (EBNA) stable cell line and control HEK293 (EBNA) cells. The cells were harvested with enzyme-free cell dissociation buffer, recovered by centrifugation at 300×g for 5 min at 22° C. and resuspended at 2×10^6 cells/ml in DMEM growth medium without G418 or hygromycin B. The cells were incubated at 37° C., 6% CO2 for 45 min with 2 μM fura-2 AM. Unincorporated fura-2 AM was removed by three washes in HBSS (1.3 mM CaCl2, 5 mM KCl, 0.3 mM KH2PO4, 0.9 mM MgCl2, 138 mM NaCl, 4 mM NaHCO3, 0.3 mM Na2HPO4, 5.6 mM D-glucose) by centrifugation at 300×g, for 5 min at 22° C. The cells were then resuspended at a final concentration of 10^6 cells/ml in HBSS. [Ca^2+]i was measured following agonist challenge of 2*10^6 fura-2 AM loaded cells using a Perkin-Elmer LS-5 spectrophotometer essentially as described (Chan et al., 1994, Journal of Pharmacology and Experimental Therapeutics 269(3): 891-896).
In general terms: Calcium flux is commonly read through the fluorescence of an indicator in the cells.

Another assay deals with T2, DP receptor (Homo sapiens, UniProt Q13258).
T2 construct: The full length coding cDNA was constructed as follows; expressed in transfected cells
T2 sequence (Q13258 1-359): T1 sequence (Q13258 1-359)
As to the kind of experiment: Intracellular calcium [Ca2+]i assay in DP-HEK293 (EBNA) stable cell line. In kind it is cell-based. To be noted: for calcium mobilization [Ca2+]i: DP-expressing HEK293 (EBNA) cells. The arrangement: [Ca2+]i upon ionophore challenge at end of experiment (viability check): dose or concentration left out as unconfirmed. As for the experimental part: FIG. 4—Increases in intracellular calcium [Ca^2+]i in HEK293 (EBNA) cells stably expressing the DP receptor is shown. DP-HEK293 (EBNA) cells were harvested and prepared as described in Example 8. […] At the end of each experiment cells were challenged with 1 μM ionomycin to release [Ca^2+]i followed by quenching of the [Ca^2+]i release with 1 mM EDTA.
as §2

In assay [4] the test system is control HEK293 (EBNA) cells. Put plainly: cAMP assay in control HEK293 (EBNA) cells. In kind it is cell-based. To be noted: 1 μM; for cAMP production in control cells: control HEK293 (EBNA) cells. How it is done: as §1

For orientation: Ki means the dissociation constant of the complex between target and ligand, obtained from inhibition or displacement. By EC50 is commonly meant the concentration giving half of the maximal effect. As for `O=C(O)CCCCCCC1C(=O)NC(=O)N1CCC(O)C1CCCCC1` (stereo not drawn) [BW245C], the inhibitory constant (Ki) in assay [1] turned out to be 0.9 nM. The EC50 in assay [2] was found to be 0.6 nM.
For `O=C(O)CCCCCCC1C(=O)N(Cc2ccccc2)C(=O)N1NCC(O)C1CCCCC1` (stereo not drawn) [BW868C], in assay [1], the Ki worked out at 1.7 nM. In assay [2], this compound came in with a cAMP production of 20 pmol cAMP/1.5×10^5 cells.
As to `CCCCC[C@H](O)/C=C/[C@H]1C(=O)C[C@H](O)[C@@H]1C/C=C\CCCC(=O)O` [PGD2, Prostaglandin D2], the “change in [Ca2+]i in control cells” value in assay [3] was “did not provoke any change”. Besides, the Ki in assay [1] was found to be 1.1 nM. In addition, in assay [2], the “fold less potent than BW245C (cAMP EC50)” value worked out at 10 fold, the EC50 was determined as 6.4 nM and the cAMP production is greater than 140 pmol cAMP/1.5×10^5 cells. For the same compound, the “calcium mobilization [Ca2+]i” value at DP receptor (10 to 1000 nM) is reported as “increased calcium mobilization”. Moreover, the “calcium mobilization [Ca2+]i” value on DP receptor (concentrations below 10 nM, versus vehicle) is on record as “failed to induce a response”.
On to `CCCCC[C@H](O)/C=C/[C@H]1[C@H](O)CC(=O)[C@@H]1CCCCCCC(=O)O` [PGE1], for which, in assay [4], the “fold less cAMP in control cells than in similarly challenged DP-expressing cells” value is given as 14 fold and the “cAMP production in control cells” value was found to be 6 pmoles/1.5×10^5 cells.
For `CCCCC[C@H](O)/C=C/[C@H]1[C@H](O)CC(=O)[C@@H]1C/C=C\CCCC(=O)O` [PGE2], the Ki in assay [1] worked out at 101 nM. In assay [4], the “fold less cAMP in control cells than in similarly challenged DP-expressing cells” value was determined as 14 fold and the “cAMP production in control cells” value is reported as 6 pmoles/1.5×10^5 cells.
Take `CCCCC[C@H](O)/C=C/[C@@H]1[C@@H](C/C=C\CCCC(=O)O)[C@@H](O)C[C@H]1O` [PGF2a]: the Ki in assay [1] was determined as 512 nM.
Still for that read-out and setting: the same measure for `CCCCC[C@H](O)/C=C/[C@@H]1[C@@H](C/C=C\CCCC(=O)O)[C@H]2CO[C@@H]1C2` [U46619]: roughly 1850 nM.
As to `CC#CCC(C)[C@H](O)/C=C/[C@@H]1[C@H]2C/C(=C/CCCC(=O)O)C[C@H]2C[C@H]1O` (stereo partly drawn) [iloprost], the Ki in assay [1] came out at 630 nM. For the same compound, the EC50 in assay [2] was greater than 500 nM.
On to `C[C@H](CCC(=O)O)C[C@H](C)C[C@H](C)C(=O)/C=C(\O)[C@H](C)C[C@H](C)C/C=C/[C@@H](C)[C@@H](O)[C@@H](C)[C@@H](O)C[C@@H]1CC[C@@](C)([C@H]2CC[C@@](C)([C@@H](C)O)O2)O1` [ionomycin], for which, on DP receptor, the “[Ca2+]i upon ionophore challenge at end of experiment (viability check)” value is “large increase in [Ca^2+]i”.
